Results as given in patent publication US9783536B2, “Nitrogen-containing heterocyclic compound or salt thereof” (FUJIFILM Corporation, priority 2013, dated 2017).
Structures can show the parent of a compound that is named as a salt. Where two headings read alike, the source gives them in different places.

Experiments:
Format in all cases: biochemical
human PI3Kα protein = target: T1, human PI3Kα protein (Homo sapiens, UniProt P42336); assay: PI3Kα enzyme assay (ADP-Glo); conditions: read-out: PI3Kα enzyme inhibitory activity
T1 construct: purchased Carna Biosciences, Inc; host or cells: baculovirus expression system
Method in brief: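 Biotinylated human PI3Kα (baculovirus-expressed, 4.5 nmol/L) pre-incubated 15 min with compound in Tris-HCl pH 7.5, MgCl2, BSA; reaction 60 min at 25° C with 50 μmol/L PIP2 and 100 μmol/L ATP final. ADP quantified by ADP-Glo luminescence; IC50 calculated.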

[1] = target: T2, GST fusion human ERK2 protein (Homo sapiens, UniProt P28482); assay: ERK2 enzyme assay (1); conditions: read-out: ERK2 enzyme inhibitory activity (1)
T2 construct: purchased Carna Biosciences, Inc; host or cells: E. coli expression system
Method in brief: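 IC50 derived from the proportion of phosphorylated 5-FAM peptide, separated from unphosphorylated peptide by microfluidic mobility shift. Compound was first preincubated 15 min at room temperature with 2.5 nmol/L kinase at pH 7.5, then 43.1 μmol/L ATP plus 4.25 μmol/L substrate reacted 120 min at 25 °C.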

[2] = target: T2, GST fusion human ERK2 protein; assay: ERK2 enzyme assay (2); conditions: read-out: ERK2 enzyme inhibitory activity (2)
Method in brief: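 IC50 values come from mobility-shift measurement of phosphorylated versus unphosphorylated 5-FAM peptide substrate after EDTA quench. Beforehand, compound and 1.25 nmol/L E. coli-expressed GST–human ERK2 stood 15 min at room temperature (pH 7.5), then 1 mmol/L ATP and 4.25 μmol/L substrate (final) were added for 120 min at 25 °C.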

[3] = 4.5 nmol/L PI3Kα, PIP2 50 μmol/L, ATP 100 μmol/L
[4] = 2.5 nmol/L ERK2, ATP 43.1 μmol/L

T1 sequence (P42336 whole entry): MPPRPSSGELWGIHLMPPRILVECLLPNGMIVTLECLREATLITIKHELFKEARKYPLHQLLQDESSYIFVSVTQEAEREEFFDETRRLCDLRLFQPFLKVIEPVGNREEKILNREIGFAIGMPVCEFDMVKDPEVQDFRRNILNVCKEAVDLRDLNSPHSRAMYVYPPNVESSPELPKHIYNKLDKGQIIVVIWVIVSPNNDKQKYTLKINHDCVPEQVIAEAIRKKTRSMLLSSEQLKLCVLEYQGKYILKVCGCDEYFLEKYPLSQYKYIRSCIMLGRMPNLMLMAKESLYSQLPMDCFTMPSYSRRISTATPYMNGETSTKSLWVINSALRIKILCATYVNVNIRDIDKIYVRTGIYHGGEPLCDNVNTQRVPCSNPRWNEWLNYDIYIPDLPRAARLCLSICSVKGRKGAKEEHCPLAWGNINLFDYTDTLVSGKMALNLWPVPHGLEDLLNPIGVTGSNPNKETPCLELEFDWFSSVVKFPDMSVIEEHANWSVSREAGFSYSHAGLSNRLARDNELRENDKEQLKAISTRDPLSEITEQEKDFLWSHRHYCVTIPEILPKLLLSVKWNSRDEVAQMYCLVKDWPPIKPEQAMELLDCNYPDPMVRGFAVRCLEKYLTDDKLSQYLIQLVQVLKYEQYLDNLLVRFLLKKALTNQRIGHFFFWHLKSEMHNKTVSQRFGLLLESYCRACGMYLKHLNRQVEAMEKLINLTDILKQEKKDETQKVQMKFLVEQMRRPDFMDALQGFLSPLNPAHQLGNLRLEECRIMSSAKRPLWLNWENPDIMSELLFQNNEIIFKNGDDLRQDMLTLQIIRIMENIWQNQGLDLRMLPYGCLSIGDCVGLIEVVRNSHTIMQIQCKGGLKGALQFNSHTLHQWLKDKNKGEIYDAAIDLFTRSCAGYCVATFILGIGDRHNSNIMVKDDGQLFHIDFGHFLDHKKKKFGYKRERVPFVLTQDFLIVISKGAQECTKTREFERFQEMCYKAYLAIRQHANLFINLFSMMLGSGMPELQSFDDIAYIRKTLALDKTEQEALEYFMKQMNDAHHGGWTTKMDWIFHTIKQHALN
T1 sequence (P27986 whole entry partner): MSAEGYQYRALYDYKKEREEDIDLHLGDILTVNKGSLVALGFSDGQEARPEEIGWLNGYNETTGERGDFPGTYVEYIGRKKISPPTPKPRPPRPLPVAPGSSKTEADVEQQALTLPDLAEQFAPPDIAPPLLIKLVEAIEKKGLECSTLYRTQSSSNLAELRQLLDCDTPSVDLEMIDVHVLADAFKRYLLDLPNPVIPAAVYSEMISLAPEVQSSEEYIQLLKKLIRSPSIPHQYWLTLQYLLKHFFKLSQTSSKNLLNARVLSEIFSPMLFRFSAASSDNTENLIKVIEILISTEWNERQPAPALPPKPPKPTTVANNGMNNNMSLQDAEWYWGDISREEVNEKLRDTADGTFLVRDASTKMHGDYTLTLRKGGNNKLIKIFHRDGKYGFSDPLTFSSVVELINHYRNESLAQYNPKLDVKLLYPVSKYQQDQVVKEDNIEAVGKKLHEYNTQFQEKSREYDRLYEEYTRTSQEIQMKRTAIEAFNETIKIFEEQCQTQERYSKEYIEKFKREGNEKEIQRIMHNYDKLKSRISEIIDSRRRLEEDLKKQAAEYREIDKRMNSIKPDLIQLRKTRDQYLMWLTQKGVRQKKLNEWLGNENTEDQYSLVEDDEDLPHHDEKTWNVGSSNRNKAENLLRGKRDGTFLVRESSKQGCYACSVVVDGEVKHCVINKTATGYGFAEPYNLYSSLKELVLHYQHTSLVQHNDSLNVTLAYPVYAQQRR
T2 sequence (P28482 whole entry, the tested form may be a part): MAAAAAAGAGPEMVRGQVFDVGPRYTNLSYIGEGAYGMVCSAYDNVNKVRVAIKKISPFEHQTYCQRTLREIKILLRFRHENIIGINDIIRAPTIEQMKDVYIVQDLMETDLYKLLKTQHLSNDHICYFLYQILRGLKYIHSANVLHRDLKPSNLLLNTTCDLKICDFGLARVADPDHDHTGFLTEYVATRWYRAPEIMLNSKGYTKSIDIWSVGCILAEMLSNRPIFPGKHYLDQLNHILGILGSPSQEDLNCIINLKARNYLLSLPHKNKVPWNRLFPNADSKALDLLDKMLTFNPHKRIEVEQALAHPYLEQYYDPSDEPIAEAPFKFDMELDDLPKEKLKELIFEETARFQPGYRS

Compound	IC50 (human PI3Kα protein; [3]) [µM]	IC50 [1, 4] [µM]	IC50 ([2]; 1.25 nmol/L ERK2, ATP 1 mmol/L) [µM]	IC50 (human PI3Kα protein) [µM]	IC50 ([1]; ERK2 enzyme assay (1)) [µM]	IC50 ([2]; ERK2 enzyme assay (2)) [µM]
c1nc2ccc(Nc3nnc(C4CCCC4)s3)nc2cc1N1CCn2cnnc2C1 [Example 0091]	< 1	< 1	< 1	–	–	–
CC(C)c1cnnc(Nc2ccc3ncc(-c4ccnc(O)c4)cc3n2)c1 [Example 0589, 4-(6-((5-isopropylpyridazin-3-yl)amino)-1,5-naphthyridin-3-yl)pyridin-2-ol]	–	–	–	< 1	< 1	< 1
COc1cncc(Nc2cnc3ccc(Nc4nnc(C5CCCC5)s4)nc3c2)c1 [Example 0072]	< 1	< 1	< 1	–	–	–
CCCCc1nn(C)cc1-c1cnc2ccc(Nc3nnc(C4CCCC4)s3)nc2c1 [Example 0115]	< 1	< 1	< 1	–	–	–
c1nc2ccc(Nc3cc(C4CCCC4)cnn3)nc2cc1-c1cnn(CCCN2CCCC2)c1 [Example 0016]	< 1	< 1	< 1	–	–	–
c1cc(-c2ccnc3ccc(Nc4nnc(CC5CCCO5)s4)nc23)ccn1 (stereo not drawn) [Example 0276]	–	–	–	< 1	< 1	1 to 10
c1cc(Nc2cnc3ccc(Nc4nnc(C5CCCC5)s4)nc3c2)cnn1 [Example 0088]	< 1	< 1	< 1	–	–	–
Cn1cc(-c2cnc3ccc(Nc4nncs4)nc3c2)cn1 [Example 0026, N-(7-(1-methyl-1H-pyrazol-4-yl)-1,5-naphthyridin-2-yl)-1,3,4-thiadiazole-2-amine]	< 1	< 1	< 1	–	–	–
Cn1cc(-c2cnc3ccc(Nc4nnc(C5CCCC5)s4)nc3c2)c(C2CC2)n1 [Example 0132]	< 1	< 1	< 1	–	–	–
CC(C)Cc1cnnc(Nc2ccc3ncc(-c4cnn(CCCN5CCCC5)c4)cc3n2)c1 [Example 0292]	–	–	–	< 1	< 1	< 1
CS(=O)(=O)Cc1nnc(Nc2ccc3ncc(-c4cnn(CCCN5CCCC5)c4)cc3n2)s1 [Example 0258]	–	–	–	< 1	< 1	< 1
c1nc2ccc(Nc3nnc(C4CCCC4)s3)nc2cc1N1CCOCC1 [Example 0311, 5-cyclopentyl-N-(7-morpholino-1,5-naphthyridin-2-yl)-1,3,4-thiadiazole-2-amine]	–	–	–	1 to 10	< 1	< 1
CN1CCC(c2nnc(Nc3ccc4ncc(-c5cnn(C)c5)cc4n3)s2)C1 (stereo not drawn) [Example 0252, N-(7-(1-methyl-1H-pyrazol-4-yl)-1,5-naphthyridin-2-yl)-5-(1-methylpyrrolidin-3-yl)-1,3,4-thiadiazole-2-amine]	–	–	–	1 to 10	< 1	< 1
Cn1cc(-c2cnc3ccc(Nc4nnc(C(C)(C)C)s4)nc3c2)cn1 [Example 0162]	< 1	< 1	< 1	–	–	–
COCc1nn(C)cc1-c1cnc2ccc(Nc3cc(C(C)C)cnn3)nc2c1 [Example 0160]	< 1	< 1	< 1	–	–	–
c1nc2ccc(Nc3nnc(C4CCCCC4)s3)nc2cc1-c1cnn(CCCN2CCCC2)c1 [Example 0236]	–	–	–	< 1	< 1	< 1
NC(=O)CCn1cc(-c2cnc3ccc(Nc4nnc(C5CCCC5)s4)nc3c2)cn1 [Example 0343]	–	–	–	< 1	< 1	< 1
Cn1cc(-c2cnc3ccc(Nc4nnc(C5CCCC5)s4)nc3c2)cn1 [Example 0172, 5-cyclopentyl-N-(7-(1-methyl-1H-pyrazol-4-yl)-1,5-naphthyridin-2-yl)-1,3,4-thiadiazole-2-amine]	< 1	< 1	< 1	–	–	–
F[C@@H]1CCN(CCCn2cc(-c3cnc4ccc(Nc5nnc(C6CCCC6)s5)nc4c3)cn2)C1 [Example 0351, (R)-5-cyclopentyl-N-(7-(1-(3-(3-fluoropyrrolidin-1-yl)propyl)-1H-pyrazol-4-yl)-1,5-naphthyridin-2-yl)-1,3,4-thiadiazole-2-amine]	–	–	–	< 1	< 1	< 1
Cn1cc(-c2cnc3ccc(Nc4nnc(C5CCNC5)s4)nc3c2)cn1 (stereo not drawn) [Example 0251]	–	–	–	1 to 10	< 1	< 1
C1=C(c2cnc3ccc(Nc4nnc(C5CCCC5)s4)nc3c2)CCOC1 [Example 0327]	–	–	–	1 to 10	< 1	< 1

Compound	IC50 (human PI3Kα protein; [3]) [µM]	IC50 [1, 4] [µM]	IC50 ([2]; 1.25 nmol/L ERK2, ATP 1 mmol/L) [µM]	IC50 (human PI3Kα protein) [µM]	IC50 ([1]; ERK2 enzyme assay (1)) [µM]	IC50 ([2]; ERK2 enzyme assay (2)) [µM]
c1nc(CN2CCOCC2)ncc1Nc1cnc2ccc(Nc3nnc(C4CCCC4)s3)nc2c1 [Example 0116]	< 1	< 1	< 1	–	–	–
CCCc1nn(CCCN2CCCC2)cc1-c1cnc2ccc(Nc3nnc(C(C)C)s3)nc2c1 [Example 0147]	< 1	< 1	< 1	–	–	–
CC(C)c1nnc(Nc2ccc3ncc(Nc4cncnc4)cc3n2)s1 [Example 0095]	< 1	< 1	1 to 10	–	–	–
CCOC(=O)Cc1nnc(Nc2ccc3ncc(-c4cnn(CCCN5CCCC5)c4)cc3n2)s1 [Example 0242, ethyl (5-((7-(1-(3-(pyrrolidin-1-yl)propyl)-1H-pyrazol-4-yl)-1,5-naphthyridin-2-yl)amino)-1,3,4-thiadiazol-2-yl)acetate]	–	–	–	< 1	< 1	< 1
CC(C)c1nnc(Nc2ccc3ncc(Nc4ccc(CN5CCOCC5)nc4)cc3n2)s1 [Example 0096]	< 1	< 1	< 1	–	–	–
COCCCn1cc(-c2cnc3ccc(Nc4cc(C(C)C)cnn4)nc3c2)cn1 [Example 0472]	–	–	–	< 1	< 1	< 1
c1cc(CN2CCCC2)ncc1Nc1cnc2ccc(Nc3nnc(C4CCCC4)s3)nc2c1 [Example 0086]	< 1	< 1	< 1	–	–	–
COc1nn(C)cc1-c1cnc2ccc(Nc3nnc(C4CCCC4)s3)nc2c1 [Example 0114]	< 1	< 1	< 1	–	–	–
c1nc2ccc(Nc3nnc(C4CCC4)s3)nc2cc1-c1cnn(CCCN2CCCC2)c1 [Example 0235]	–	–	–	< 1	< 1	< 1
COC1CN(c2cnc3ccc(Nc4nnc(C5CCCC5)s4)nc3c2)C1 [Example 0092]	1 to 10	< 1	< 1	–	–	–
CCc1nn(C)cc1-c1cnc2ccc(Nc3nnc(C(C)C)s3)nc2c1 [Example 0121]	< 1	< 1	< 1	–	–	–
FC1(F)CN(CCCn2cc(-c3cnc4ccc(Nc5nnc(C6CCCC6)s5)nc4c3)cn2)C1 [Example 0354]	–	–	–	< 1	< 1	< 1
COc1cncc(Nc2cnc3ccc(Nc4cc(C)cnn4)nc3c2)c1 [Example 0157, N^7-(5-methoxypyridin-3-yl)-N^2-(5-methylpyridazin-3-yl)-1,5-naphthyridine-2,7-diamine]	< 1	< 1	< 1	–	–	–
F[C@H]1CCN(CCCn2cc(-c3cnc4ccc(Nc5nnc(C6CCCC6)s5)nc4c3)cn2)C1 [Example 0346]	–	–	–	< 1	< 1	< 1
c1nc2ccc(Nc3cc(C4CC4)cnn3)nc2cc1-c1cnn(CCCN2CCCC2)c1 [Example 0295, N-(5-cyclopropylpyridazin-3-yl)-7-(1-(3-(pyrrolidin-1-yl)propyl)-1H-pyrazol-4-yl)-1,5-naphthyridine-2-amine]	–	–	–	< 1	< 1	< 1
COc1cc(-c2cnc3ccc(Nc4cc(C(C)C)cnn4)nc3c2)ccn1 [Example 0588]	–	–	–	1 to 10	< 1	< 1
Cc1cnnc(Nc2ccc3ncc(Nc4cncc(OCCN5CCOCC5)c4)cc3n2)c1 [Example 0158, N^2-(5-methylpyridazin-3-yl)-N^7-(5-(2-morpholinoethoxyl)pyridin-3-yl)-1,5-naphthyridine-2,7-diamine]	< 1	< 1	1 to 10	–	–	–
CN1CCC(n2cc(-c3cnc4ccc(Nc5nnc(C6CCCC6)s5)nc4c3)cn2)CC1 [Example 0318, 5-cyclopentyl-N-(7-(1-(1-methylpiperidin-4-yl)-1H-pyrazol-4-yl)-1,5-naphthyridin-2-yl)-1,3,4-thiadiazole-2-amine]	–	–	–	< 1	< 1	< 1
c1nnc(Nc2ccc3ncc(-c4cn[nH]c4)cc3n2)s1 [Example 0032, N-(7-(1H-pyrazol-4-yl)-1,5-naphthyridin-2-yl)-1,3,4-thiadiazole-2-amine hydrochloride]	< 1	< 1	< 1	–	–	–
c1nc2ccc(Nc3nnc(C4CCCC4)s3)nc2cc1-c1cnn(CCCN2CCNCC2)c1 [Example 0303, 5-cyclopentyl-N-(7-(1-(3-(piperazin-1-yl)propyl)-1H-pyrazol-4-yl)-1,5-naphthyridin-2-yl)-1,3,4-thiadiazole-2-amine]	–	–	–	< 1	< 1	< 1
